The text below walks through data of ChEMBL document CHEMBL1134571, “Photochemical synthesis of N-arylbenzophenanthridine selective estrogen receptor modulators (serms)” (J Med Chem, 2001).

Active and inactive are the calls of the source. The calls are words filed in the database; no cut-off is given here.

The test system of assay [1] is MCF7. Kind of assay: Inhibition of 17-beta-estradiol induced MCF-7 cell proliferation. Format: functional, cell-based. The following applies: Homo sapiens.
The target of assay [2] is Estrogen receptor (Homo sapiens) (UniProt Q92731+P03372). Briefly: Relative binding affinity(RBA) as displacement of [3H]17-beta-estradiol from MCF-7 cell lysate;NA=not active. The class given is cell-based. (In general: In a radioligand displacement assay an active substance lowers the binding of a labelled ligand.)
For assay [3], the system named is MCF7. Briefly: Inhibition of 17-beta-estradiol induced MCF-7 cell proliferation;NA=not active. Conditions: Homo sapiens. The class given is functional, cell-based.
Assay [4] deals with MCF7. Briefly: Inhibition of 17-beta-estradiol induced MCF-7 cell proliferation; NA=not active. The class given is functional, cell-based. Conditions: Homo sapiens.

As for `COc1ccc2c(c1)CN(c1ccc(OCCN3CCCCC3)cc1)C1=C2CCc2cc(OC)ccc21`, inhibition in the assay with MCF7 [1] was half-maximal at 287 nM (IC50).

With `COc1ccc2c(ccc3c4ccc(OC)cc4c(=O)n(-c4ccc(OCCN5CCCCC5)cc4)c23)c1`, the NA result (in assay [2]; in the assay on MCF7 [3]) was “inactive” throughout.

As for `O=c1c2cc(O)ccc2c2ccc3cc(O)ccc3c2n1-c1ccc(OCCN2CCCCC2)cc1`, in the assay on MCF7 [3], the NA result was “inactive”.

`O=c1c2cc(O)ccc2c2c(n1-c1ccc(OCCN3CCCCC3)cc1)-c1ccc(O)cc1CC2` returned an IC50 in the assay on MCF7 [1] of 128 nM.

Consider `C[C@]12CC[C@@H]3c4ccc(O)cc4CC[C@H]3[C@@H]1CC[C@@H]2O`, for which, in the assay with MCF7 [4], the NA entry is “inactive”.

Compound `COc1ccc2c(c1)CN(c1ccc(OCCN3CCCCC3)cc1)c1c-2ccc2cc(OC)ccc12` showed a concentration for half-maximal inhibition (IC50) in the assay with MCF7 [1] of 19 nM.

On to `Oc1ccc2c(c1)CN(c1ccc(OCCN3CCCCC3)cc1)c1c-2ccc2cc(O)ccc12`, for which the IC50 with MCF7 [1] stood at 1 nM.

A word on the IC50: it is the concentration at which inhibition is half-maximal. Higher therefore signals lower potency.
